Measured values as given in US20070212360A1, “Modulation of mitochondrial oxygen consumption for therapeutic purposes” (priority 2006, published 2007).

Columns and labels:
[1] = tested on: PDK1 in wildtype and HIF1α knockout mouse embryo fibroblasts (MEFs); experiment: Western blot of PDK1 in hypoxic MEFs; type: cell-based; details: 0.5% O2 24 h, 2 ng/ml
Method: FIG. 11. Inhibition of HIF1 increases oxygen consumption in vitro. (a) Western blot of wildtype and HIF1α knockout MEFs exposed normoxia (N) or hypoxia (H) (0.5% O2) for 24 hours in the presence or absence of 2 ng/ml echinomycin. (b) In vitro oxygen consumption of wildtype and HIF1α knockout MEFs (b) after exposure to 24 hours of normoxia or hypoxia (0.5% O2) in the presence or absence of 2 ng/ml echinomycin. Data are normalized to normoxic values. (*) indicate a significant difference relative to control (p<0.05).
Western blots. In brief, cells were harvested directly in RIPA buffer containing protease inhibitors, protein concentrations were quantified (Pierce), 25-50 μg of total protein was electrophoresed on a reducing Tris-Tricine gel, and electroblotted to PVDF membrane. Antibodies used were rabbit anti-PDK1 (Stressgen) (1:2000), murine anti-α tubulin (Research Diagnostics) (1:2000), and rabbit anti-Bnip3 and anti-Bnip3L as described previously by Papandreou et al. (2005) Cancer research 65, 3171-8. (1:500). Primary antibodies were detected with species-specific secondary antibodies labeled with Alkaline Phosphatase (Vector labs) (1:3000) and visualized with ECF (Amersham) on a Storm 860 phosphoimager (Molecular Devices).

[2] = tested on: RKO and RKOShHIF1α tumors; experiment: Oxygen consumption of freshly explanted RKO tumor xenografts; type: in vivo, mouse; details: 0.12 mg/kg echinomycin ip 24 h prior; vs PBS controls
Method: FIG. 7. Inhibition of HIF1 and PDK1 increases oxygen consumption in vitro and in vivo. (a) Western blots of extracts from RKO and Su.86 cells exposed to normoxia (N) or hypoxia (H) (0.5% O2) for 24 h in the presence or absence of 2 ng/ml echinomycin probed for the indicated proteins. (b) Oxygen consumption rates of RKO and RKOShHIF1α cells (left) and Su.86 cells (right) after 24 h treatment with normoxia or hypoxia (0.5% O2) with or without 2 ng/ml echinomycin. Data are normalized to normoxic samples. (c) Relative oxygen consumption of RKO cells treated with hypoxia (0.5% O2) for 24 h in the presence of increasing concentrations of echinomycin. (d) Oxygen consumption rates of freshly explanted tumor tissue from RKO (n=16) and RKOShHIF1α (n=8) xenografts. (e) Oxygen consumption rates of RKO and RKOShHIF1 tumors from mice treated with 0.12 mg/kg echinomycin ip 24 h prior (n=8), or 50 mg/kg DCA ip 4 h prior (n=8). Data is normalized to PBS treated controls (n=8-16). (*) indicate a significant difference relative to control (p<0.05).
Cell lines and tumor xenografts. […]
Oxygen consumption measurements. […] Oxygen consumption was measured in a 0.5 ml volume using an Oxytherm electrode unit (Hansatech, Norfolk, UK). […] Oxygen consumption was measured as above in a 1 ml volume and normalized to tissue weight.

[3] = tested on: Su.86 tumors; experiment: Tumor growth delay, Su.86 xenografts; type: in vivo, mouse; details: tirapazamine followed by echinomycin at 24 hours, 6 cycles; compared to echinomycin followed by tirapazamine
Method: FIG. 10. Pharmacologic inhibition of HIF1 or PDK1 enhances the response of tumor xenografts to the hypoxic cytotoxin tirapazamine. For all experiments, treatment was initiated when the mean tumor volume was 100-200 mm^3. (a) RKO tumor bearing mice were treated with 0.12 mg/kg echinomycin ip followed by 30 mg/kg tirapazamine ip at 24 hours, followed by a rest day for 3 cycles. Single agents were given at the same dose, on the same schedule. (b) RKO tumor bearing mice were treated with 50 mg/kg DCA ip followed by 20 mg/kg tirapazamine ip at 4 hours daily for 14 days. Single agents were given at the same dose, on the same schedule. (c,d,e) RKO (c), RKOShHIF1α (d), or Su.86 (e) tumor bearing mice were treated with echinomycin plus tirapazamine as described above for 6 cycles (Ech+TPZ), or tirapazamine followed by echinomycin at 24 hours followed by a rest day for 6 cycles (TPZ+Ech). For all experiments, arrows indicate when treatment was stopped.
Cell lines and tumor xenografts. RKO human colon carcinoma cells and Su.86 human pancreatic carcinoma cells were obtained from the American Type Culture Collection (ATCC, Manassas, Va.). The RKOShHIF1α cell line in which HIF1α is stably knocked down by shRNA has been described previously. RKO and immortalized MEF cells were grown in Dulbecco's Modified Eagle's Media (DMEM) supplemented with 10% fetal bovine serum (FBS). […]

CS[C@H]1SC[C@H]2C(=O)N(C)[C@@H](C(C)C)C(=O)OC[C@@H](NC(=O)c3cnc4ccccc4n3)C(=O)N[C@@H](C)C(=O)N(C)[C@@H]1C(=O)N(C)[C@@H](C(C)C)C(=O)OC[C@@H](NC(=O)c1cnc3ccccc3n1)C(=O)N[C@@H](C)C(=O)N2C [echinomycin]
hypoxic expression of PDK1 in HIF1α deficient cells ([1]; HIF1α knockout MEFs): no effect
hypoxic PDK1 induction in wildtype MEFs ([1]; wildtype MEFs): blocked PDK1 induction
tumor oxygen consumption, RKO wildtype tumors [2]: significantly increased
tumor oxygen consumption, RKOShHIF1 tumors [2]: no effect
effect on growth of Su.86 tumors, reversed schedule [3]: little effect
